Laboratory results as given in article PMC12192976, “Unique Structural Features Relate to Evolutionary Adaptation of Cytochrome P450 in the Abyssal Zone” (International Journal of Molecular Sciences, 2025).
Blank lines part the entries; values can stand above or below the compound they belong to.

Tests used:
[1] = biological target: T1, C. armatus CYP51 (Coryphaenoides armatus, UniProt Z9AQN8BZD8); test: Reconstituted sterol 14α-demethylation, steady-state (Michaelis–Menten) kinetics; conditions: 0.25 µM P450, 1 µM CPR, 1 min reaction, 37 °C; for kcat: sterol 3.12−37.5 µM
Experimental: (§1) The samples were preincubated for 3 min at 37 °C in a shaking water bath, and the reaction was initiated by the addition of 100 μM NADPH and stopped by the extraction of sterols with ethyl acetate. The extracted sterols were dried, dissolved in 100 µL of methanol, and the products were analyzed by reversed-phase HPLC equipped with a β-RAM detector (INUS Systems) using a Nova-Pak 3.9 mm × 150 mm (4 μm) octadecylsilane (C18) HPLC column. The products were separated with an isocratic mobile phase composed of acetonitrile and methanol (4:1 (v/v)) at a flow rate of 0.75 mL/min [9]. Michaelis–Menten parameters were calculated using GraphPad Prism. The kcat and Km values for each reaction were determined by fitting the data to a Michaelis–Menten hyperbola, with the reaction rates (nmol product formed/nmol P450/min) being plotted versus total substrate concentration.

[2] = biological target: T1, C. armatus CYP51; test: Spectral titration of C. armatus CYP51 with sterol substrates (type I response); conditions: P450 2 µM; for Kd: read-out: Kd (apparent spectral dissociation constant, sterol substrate), titration step 0.25 µM; for Spin State Transition in the Heme Iron: sterol 0.25−3 µM, 22 °C
Experimental: Equal amounts of the HPCD solution were added to the reference cuvette to correct for the solvent-induced spectral perturbations, and the difference spectra were taken in the wavelength range of 350–500 nm. […] The apparent spectral dissociation constants (Kd) were calculated in GraphPad Prism software, as described, for human CYP51 [22].

[3] = biological target: T1, C. armatus CYP51; test: Spectral titration with azole-based ligands (type II response)
Experimental: Equal amounts of the HPCD solution were added to the reference cuvette to correct for the solvent-induced spectral perturbations, and the difference spectra were taken in the wavelength range of 350–500 nm. […] Titrations with azole-based compounds were carried out at 0.5 µM P450 concentration in 5 cm optical path length cuvettes. Aliquots of 0.1 mM compounds dissolved in dimethyl sulfoxide (DMSO) were added to the sample cuvette, with each titration step being 0.1 µM. At each step, the corresponding volume of DMSO was added to the reference cuvette. The apparent spectral dissociation constants (Kd) were calculated in GraphPad Prism software, as described, for human CYP51 [22].

[4] = biological target: human CYP51; parameters: method as in PMID 27313059; conditions: read-out: apparent dissociation constant (Kd), azole ligand; cited from earlier work
[5] = test system: human CYP51; parameters: method as in PMID 27313059; conditions: cited from earlier work
[6] = biological target: T1, C. armatus CYP51
Experimental: as §1

[7] = biological target: T1, C. armatus CYP51; test: Inhibition of reconstituted lanosterol 14α-demethylation, 1 h reaction; conditions: enzyme/inhibitor/substrate 1:50:50, 60 min
Experimental: as §1

[8] = biological target: T1, C. armatus CYP51; test: Stabilization of C. armatus CYP51 by TMAO (CO-binding spectra after overnight storage)
Experimental: Absorption spectra (270–700 nm) were recorded at 22 °C using a dual-beam Shimadzu UV-2600i spectrophotometer and UVProbe2.71 software. The P450 concentration was determined from the Soret band absorbance in the absolute spectrum, with the extinction coefficient 117 mM^−1 cm^−1 for the low-spin ferric form or 91 mM^−1 cm^−1 for the reduced (ferrous) carbon monoxide (CO) complex in the difference spectra. The spin state of the P450 samples was estimated from the absolute spectra using the ratio (ΔA393–470/ΔA417–470), with values of 0.35 and 2.0 corresponding to 100% low- and 100% high-spin iron, respectively.
After data collection the crystals were dissolved in phosphate buffered saline (PBS, Gibco, Billings, MT, USA). UV-visible absolute absorption spectra (270–700 nm) were recorded at room temperature using a NanoVue,4282 single beam spectrophotometer (CE Healthcare, Cardiff, UK) (Figure S4A). CO-binding difference absorption spectra (400–500 nm) were recorded using a dual-beam Shimadzu UV-2600i spectrophotometer as follows. The CO gas was bubbled through the protein solution, which was then divided into two cuvettes serving as a blank and standard, respectively. The baseline was taken, and a few crystals of […] were added to the sample cuvette (Figure S4B). […]

[9] = read-out: apparent dissociation constant (Kd), azole ligand, P450 0.5 µM, titration step 0.1 µM

T1 sequence (Z9AQN8BZD8 6-449 limits assumed): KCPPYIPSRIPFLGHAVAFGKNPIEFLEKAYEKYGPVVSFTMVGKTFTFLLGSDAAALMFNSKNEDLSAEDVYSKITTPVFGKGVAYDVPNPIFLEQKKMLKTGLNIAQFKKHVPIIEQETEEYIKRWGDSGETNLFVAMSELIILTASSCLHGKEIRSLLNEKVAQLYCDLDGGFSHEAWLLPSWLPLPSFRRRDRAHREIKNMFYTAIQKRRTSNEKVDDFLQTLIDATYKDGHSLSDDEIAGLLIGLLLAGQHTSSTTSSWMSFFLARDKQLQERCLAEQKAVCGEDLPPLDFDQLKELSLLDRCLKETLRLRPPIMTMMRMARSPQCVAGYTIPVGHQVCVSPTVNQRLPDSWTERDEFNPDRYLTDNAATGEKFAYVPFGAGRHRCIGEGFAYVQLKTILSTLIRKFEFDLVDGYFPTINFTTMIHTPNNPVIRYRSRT

Compound: C=C(CC[C@@H](C)[C@H]1CC[C@@]2(C)C3=C(CC[C@]12C)[C@@]1(C)CC[C@H](O)[C@@H](C)[C@@H]1CC3)C(C)C [Obtusifoliol, obtusifoliol]
- Km [1]: 7.9 ± 0.6 µM
- kcat [1]: 0.865 ± 0.03 s⁻¹
- Kd [2]: 560 ± 30 nM
- Spin State Transition in the Heme Iron [2]: 13%

- Kd [3]: 20 nM
- inhibition of CYP51 activity [6]: 93%
Compound: O=C(N[C@@H](Cn1ccnc1)c1ccc(-c2ccc(F)cc2)cc1F)c1ccc(-c2nnc(-c3ccccc3)o2)cc1 [VFV, (R)-N-(1-(3,4′-difluorobiphenyl-4-yl)-2-(1H-imidazol-1-yl)ethyl)-4-(5-phenyl-1,3,4-oxadiazol-2-yl)benzamide]
- Kd [4]: 90 nM
- inhibition of CYP51 activity ([5]; human CYP51, enzyme/inhibitor/substrate 1:50:50, 60 min): 64%

- Kd [3, 9]: 620 nM
- inhibitory effect on the C. armatus CYP51 activity (in words) [7]: did not have any inhibitory effect
Compound: CCC(C)n1ncn(-c2ccc(N3CCN(c4ccc(OCC5COC(Cn6cncn6)(c6ccc(Cl)cc6Cl)O5)cc4)CC3)cc2)c1=O (stereo not shown) [itraconazole]
- Kd [4]: 1290 nM

- inhibitory effect on the C. armatus CYP51 activity (in words) [7]: did not have any inhibitory effect
Compound: N#Cc1ccc(COc2ccc(C#Cc3ccc(C(F)(F)[C@](O)(Cn4cnnn4)c4ccc(F)cc4F)nc3)cc2)cc1 [VT-1598]

Compound: C=C(CC[C@@H](C)C1CC[C@@]2(C)C3=C(CC[C@]12C)[C@@]1(C)CC[C@H](O)C(C)(C)C1CC3)C(C)C (stereo partly shown)
- Km [1]: 13 ± 0.9 µM
- kcat [1]: 1.03 ± 0.0383 s⁻¹
- Kd [2]: 1020 ± 40 nM
- Spin State Transition in the Heme Iron [2]: 27%

- inhibitory effect on the C. armatus CYP51 activity (in words) [7]: did not have any inhibitory effect
Compound: O[C@@](Cn1cnnn1)(c1ccc(F)cc1F)C(F)(F)c1ccc(-c2ccc(OCC(F)(F)F)cc2)cn1 [oteseconazole]

Compound: C[C@@H](c1ncncc1F)[C@](O)(Cn1cncn1)c1ccc(F)cc1F [voriconazole]
- Kd [3, 9]: 610 nM
- Kd [4]: 2530 nM
- inhibitory effect on the C. armatus CYP51 activity (in words) [7]: did not have any inhibitory effect

Compound: CC(=O)N1CCN(c2ccc(OCC3COC(Cn4ccnc4)(c4ccc(Cl)cc4Cl)O3)cc2)CC1 (stereo not shown) [ketoconazole]
- Kd [3, 9]: 10 nM
- Kd [4]: 70 nM
- lanosterol converted in presence of inhibitor ([5]; human CYP51, 50-fold molar excess of inhibitor, 1 h reaction): 100%

Compound: C[N+](C)(C)[O-] [TMAO, Trimethylamine oxide]
- spectral response in the C. armatus CYP51 heme iron (in words) [8]: does not cause any spectral response
- P450 recovery after overnight incubation (CO-binding spectra) ([8]; 10 mM TMAO, overnight storage at 4 °C in PBS): 90%

- inhibitory effect on the C. armatus CYP51 activity (in words) [7]: did not have any inhibitory effect
Compound: C[C@@H](c1nc(-c2ccc(C#N)cc2)cs1)[C@](O)(Cn1cncn1)c1cc(F)ccc1F [isavuconazole]

- Km [1]: 8.1 ± 1.1 µM
- kcat [1]: 0.797 ± 0.0317 s⁻¹
- Kd [2]: 770 ± 40 nM
- Spin State Transition in the Heme Iron [2]: 22%
Compound: CC(C)=CCC[C@@H](C)[C@H]1CC[C@@]2(C)C3=C(CC[C@]12C)[C@@]1(C)CC[C@H](O)C(C)(C)[C@@H]1CC3 [Lanosterol]

- inhibitory effect on the C. armatus CYP51 activity (in words) [7]: did not have any inhibitory effect
Compound: CC[C@@H]([C@H](C)O)n1ncn(-c2ccc(N3CCN(c4ccc(OC[C@@H]5CO[C@@](Cn6cncn6)(c6ccc(F)cc6F)C5)cc4)CC3)cc2)c1=O [posaconazole]
